By melting point is commonly meant the temperature of the solid-liquid transition.

The text below walks through data of patent US6855710B2, “Substituted indolines with an inhibitory effect on various kinases and complexes of CDKs” (Boehringer Ingelheim Pharma KG, priority 1998, dated 2005).

`CNC(=O)c1cccc(N/C(=C2\C(=O)Nc3ccccc32)c2ccccc2)c1` [Example 21, (Z)-3-[1-(3-methylaminocarbonyl-phenylamino)-1-phenyl-methylidene]-2-indolinone]: the melting point fell in the range of 250 to 252 °C.

Take `CN(C)C(=O)c1cccc(N/C(=C2\C(=O)Nc3ccccc32)c2ccccc2)c1` [Example 22, (Z)-3-[1-(3-dimethylaminocarbonyl-phenylamino)-1-phenyl-methylidene]-2-indolinone]: the melting point was 261 to 263 °C.

With `CCOC(=O)CNC(=O)c1cccc(N/C(=C2\C(=O)Nc3ccccc32)c2ccccc2)c1` [Example 23, (Z)-3-[1-(3-ethoxycarbonylmethylaminocarbonyl-phenylamino)-1-phenyl-methylidene]-2-indolinone], the melting point lay in the range of 233 to 235 °C.

The compound `CCOC(=O)CN(C)C(=O)c1cccc(N/C(=C2\C(=O)Nc3ccccc32)c2ccccc2)c1` [Example 25, (Z)-3-{1-[3-(N-ethoxycarbonylmethyl-N-methyl-aminocarbonyl)-phenylamino]-1-phenyl-methylidene}-2-indolinone] returned a melting point of 148 to 150 °C.

On to `CN(CC(=O)O)C(=O)c1cccc(N/C(=C2\C(=O)Nc3ccccc32)c2ccccc2)c1` [Example 26, (Z)-3-{1-[3-(N-carboxymethyl-N-methyl-aminocarbonyl)-phenyl-amino]-1-phenyl-methylidene}-2-indolinone], for which the melting point fell in the range of 218 to 220 °C.

`CC(C)(C)OC(=O)Nc1ccc(N/C(=C2\C(=O)Nc3ccccc32)c2ccccc2)cc1` [Example 28, (Z)-3-[1-(4-tert.butoxycarbonylamino-phenylamino)-1-phenyl-methylidene]-2-indolinone] had a melting point of 244 to 246 °C.

Regarding `O=CNc1ccc(N/C(=C2\C(=O)Nc3ccccc32)c2ccccc2)cc1` [Example 29, (Z)-3-[1-(4-formylamino-phenylamino)-1-phenyl-methylidene]-2-indolinone], the melting point fell in the range of 268 to 269 °C.

`O=CNc1cccc(N/C(=C2\C(=O)Nc3ccccc32)c2ccccc2)c1` [Example 30, (Z)-3-[1-(3-formylamino-phenylamino)-1-phenyl-methylidene]-2-indolinone] had a melting point of 231 °C.

Turning to `CC(=O)Nc1ccc(N/C(=C2\C(=O)Nc3ccccc32)c2ccccc2)cc1` [Example 31, (Z)-3-[1-(4-acetylamino-phenylamino]-1-phenyl-methylidene]-2-indolinone], the melting point lay in the range of 236 to 238 °C.

Take `CC(=O)Nc1cccc(N/C(=C2\C(=O)Nc3ccccc32)c2ccccc2)c1` [Example 32, (Z)-3-[1-(3-acetylamino-phenylamino)-1-phenyl-methylidene]-2-indolinone]: the melting point fell in the range of 285 to 288 °C.

The compound `O=C1Nc2ccccc2/C1=C(/Nc1cccc(NC(=O)C(F)(F)F)c1)c1ccccc1` [Example 33, (Z)-3-[1-(3-trifluoroacetylamino-phenylamino)-1-phenyl-methylidene]-2-indolinone] returned a melting point of 273 to 276 °C.

As for `CC(C)(C)OC(=O)NCC(=O)Nc1ccc(N/C(=C2\C(=O)Nc3ccccc32)c2ccccc2)cc1` [Example 34, (Z)-3-[1-(4-tert.butoxycarbonylaminomethylcarbonylamino-phenylamino)-1-phenyl-methylidene]-2-indolinone], the melting point was 243 to 244 °C (dec.).

`CN(C(=O)C(F)(F)F)c1cccc(N/C(=C2\C(=O)Nc3ccccc32)c2ccccc2)c1` [Example 36, (Z)-3-{1-[3-(N-trifluoroacetyl-N-methyl-amino)-phenylamino]-1-phenyl-methylidene}-2-indolinone] registered a melting point of 224 to 227 °C.

In turn, `CNc1cccc(N/C(=C2\C(=O)Nc3ccccc32)c2ccccc2)c1` [Example 37, (Z)-3-[1-(3-methylamino-phenylamino)-1-phenyl-methylidene]-2-indolinone] returned a melting point of 247 to 248 °C.
